Here are results for 20 molecules from paper PMC11046913, “Activation of retinoic acid-related orphan receptor γ(t) by parabens and benzophenone UV-filters” (Toxicology, 2022).

Molecules are shown by their SMILES. Where two headings read alike, the source gives them in different places.

For series [1], the target named is T1, RORγ (Mus musculus, UniProt P51450).
T1 sequence (P51450 1-516): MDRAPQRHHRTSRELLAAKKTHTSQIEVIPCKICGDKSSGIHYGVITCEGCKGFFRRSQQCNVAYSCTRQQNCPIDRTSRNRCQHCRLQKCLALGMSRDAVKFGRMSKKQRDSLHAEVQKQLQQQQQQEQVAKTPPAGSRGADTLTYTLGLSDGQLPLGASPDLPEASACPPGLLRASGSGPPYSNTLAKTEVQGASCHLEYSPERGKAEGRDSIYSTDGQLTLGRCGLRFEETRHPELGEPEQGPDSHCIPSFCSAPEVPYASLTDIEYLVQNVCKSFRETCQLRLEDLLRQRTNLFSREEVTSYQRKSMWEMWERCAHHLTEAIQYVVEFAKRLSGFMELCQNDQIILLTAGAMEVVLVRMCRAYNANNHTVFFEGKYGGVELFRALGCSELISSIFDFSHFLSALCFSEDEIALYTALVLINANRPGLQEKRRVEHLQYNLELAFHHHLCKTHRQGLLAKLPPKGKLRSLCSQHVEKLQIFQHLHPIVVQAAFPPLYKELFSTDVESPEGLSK
The experiment in a line: cell-based. Type of series: cell-based. Conditions: for RORγ agonistic activity (in words): screening at 10 μM; for activation at 1 µM: read-out: % increase in RORγ activity (mean ± SD), individual agonist at 1 μM; for fold induction at 10 µM: read-out: RORγ-dependent transactivation compared to the DMSO vehicle control; for activation at 2.5 µM: read-out: % increase in RORγ activity (mean ± SD), individual agonist at 2.5 μM. As to the method: Both cell lines were cultured under standard conditions (37 °C, 5% CO2).

In a further series the test system is estrogenic activity. Conditions: cited from earlier work.
Series [2] relates to IL-17A mRNA in EL4 T-cells over expressing human RORγt. The series can be described thus: IL-17A mRNA expression (qRT-PCR) in EL4 cells overexpressing human RORγt. Format: cell-based, murine. Conditions: 5 h, PMA/ionomycin-stimulated. The method, then:
(§1) EL4 cells were transfected with plasmid encoding the human variant of RORγt by electroporation and seeded into 12-well plates (500,000 cells and 1.6 μg plasmid in 2 mL cultivation medium per well). Transfection was performed using the NeonTM transfection system (Invitrogen, Carlsbad, CA, USA) as follows: 1.8 × 10^6 cells and 6 μg plasmid in 100 μL buffer R were exposed to one pulse (1080 V, 50 ms) utilizing a 100 μL gold tip. After incubation for 16 h, the cells were treated for 5 h with the indicated test compounds as well as PMA and ionomycin at a total concentration of 0.253 nM and 31.3 nM, respectively. Subsequently, cells were centrifuged at 200 g for 3 min and total RNA was isolated from the pellet with the RNeasy Mini Kit according to the manufacturer’s protocol (Qiagen, Venlo, Netherlands). Contamination with genomic DNA was prevented by on-column DNA digestion using DNase I (RNase-free, Qiagen). RNA (1 μg) was reverse transcribed to complementary DNA (cDNA) utilizing the Takara PrimeScript RT Reagent Kit, according to the manufacturer’s protocol (Takara Bio Inc., Kusatsu, Japan). Finally, quantitative polymerase chain reaction (qPCR) was performed using Kapa SYBER® Fast qPCR Master Mix (KAPA Biosystems, Wilmington, MA, USA) as described earlier ([Inderbinen et al., 2020]). The following primers were used: peptidylprolyl isomerase A (PPIA): forward 5’-[…]-3’, reverse 5’-[…]-3’; IL-17A: forward 5’-[…] CCAA-3’, reverse 5’-[…]-3’; IL-22: forward 5’-[…]-3’, reverse 5’-[…]-3’. Primer quality was verified by analysis of melting curves and inspection of the PCR product on an agarose gel (single band at the expected size of the amplified sequence). Resulting CT values were normalized to values of the endogenous control gene PPIA and compared to control according to the 2^−ΔΔCT method ([Schmittgen and Livak, 2008]).
(In general: In qPCR the cycle at which signal appears reflects the starting amount.)

In series [3] the test system is IL-22 mRNA in EL4 T-cells over expressing human RORγt. The experiment in a line: IL-22 mRNA expression (qRT-PCR) in EL4 cells overexpressing human RORγt. Type of series: cell-based, murine. Conditions: 5 h, PMA/ionomycin-stimulated. The method, then: as §1
Series [4] concerns the target T1, RORγ. Conditions: in presence of 1.25 μM SR2211, test compound at different concentrations.
Procedure: The CHO RORγ Tet-on cell line used in this study is a well-established reporter gene system to assess RORγ agonists and antagonists. […] CHO RORγ Tet-on cells were seeded in 96-well plates at a density of 2000 cells/100 μL culture medium, followed by incubation overnight. Subsequently, the medium was renewed, and the respective test compound dissolved in dimethylsulfoxide (DMSO) was added to the wells using a HP D300 Digital Liquid Dispenser with T8 dispense heads (HP Inc., Palo Alto, CA, USA). […] Two hours later, RORγ expression was induced by adding doxycycline at 1 μM final concentration. All samples were adjusted to contain the same volume and concentration of DMSO. After 16 h of incubation, cells were washed with PBS, lysed with 20 μL Tropix lysis solution (Applied Biosystems, Foster City, CA, USA) containing 1 mM dithiothreitol and frozen at − 80 °C for at least 20 min. […] Measured values were normalized to values from control cells treated with DMSO vehicle control only and induced with doxycycline.
Cells were simultaneously exposed to SR2211 and a given test compound at different concentrations or vehicle control.
On the set-up of series [5]: method as in CIR, 2008. Conditions: relatively long alkyl side chain; ref CIR, 2008; cited from earlier work.
The conditions of series [6]: cited from earlier work.
On the set-up of series [7]: method as in Benson et al., 2005; Fernandez et al., 2002. Conditions: human; ref Benson et al., 2005; Fernandez et al., 2002; cited from earlier work.
The mark [8] stands for this setting: only at high micromolar concentrations, ref Charles and Darbre, 2009.

For `O=C(c1ccc(O)cc1)c1ccc(O)cc1O` [2,4,4’-trihydroxybenzophenone], the “RORγ agonistic activity (in words)” value on RORγ [1] is “agonistic activity”. In the series on estrogenic activity (ref Suzuki et al., 2005), the estrogenic activity result is given as “weak estrogenic activity”.
In the case of `O=C(c1ccc(O)cc1)c1ccc(O)cc1` [4,4’-dihydroxybenzophenone], at RORγ [1], the “RORγ agonistic activity (in words)” value is “agonistic activity”.
Consider `Cc1ccc(Sc2ccc(C(=O)c3ccccc3)cc2)cc1` [4-(4-methylphenylthio)benzophenone], for which the “RORγ agonistic activity (in words)” value at RORγ [1] is on record as “agonistic activity”.
In the case of `Cc1ccc(OC(=O)c2ccccc2)cc1` [4-Methylphenylbenzoate], at RORγ [1], the activation at 1 µM stood at 6 ± 9% and the “RORγ agonistic activity (in words)” value is recorded as “significant agonistic activity”. Also, in series [2] (10 μM, vs vehicle control), the IL-17A transcription entry was “did not significantly enhance”. In series [3] (10 μM, vs vehicle control), the IL-22 transcription result is “did not significantly enhance”. In addition, on RORγ [4], the “Reversal of the SR2211-mediated inhibition of RORγ transactivation” value is recorded as “failed to do so”.
With `COc1ccc(C(=O)c2ccc(OC)cc2O)c(O)c1` [Benzophenone-6, benzophenone-6], at RORγ [1], the activation at 1 µM was -1 ± 5%, the fold induction at 10 µM is greater than 1.5 and the “RORγ agonistic activity (in words)” value is given as “agonistic activity”.
`COc1ccc(C(=O)c2ccc(C)cc2)c(O)c1` [Benzophenone-10, benzophenone-10]: the “RORγ-dependent transactivation compared to the DMSO vehicle control” value on RORγ [1] (first screening, 10 μM) is “more than 1.5 fold”. For the same molecule, at RORγ [1], the activation at 1 µM worked out at 15 ± 5%, the activation at 2.5 µM came out at 63 ± 4% and the “RORγ agonistic activity (in words)” value is “agonistic activity”. For the same molecule, in series [2] (10 μM, vs vehicle control), the IL-17A transcription result is reported as “elevated expression”. Besides, in series [3] (10 μM, vs vehicle control), the IL-22 transcription entry is reported as “tended to increase”. At RORγ [4], the “Reversal of the SR2211-mediated inhibition of RORγ transactivation” value was “significant increase”.
On to `O=C(OCc1ccccc1)c1ccccc1` [Benzylbenzoate], for which, on RORγ [1], the activation at 1 µM amounted to 16 ± 12% and the “RORγ agonistic activity (in words)” value is on record as “significant agonistic activity”. Moreover, the IL-17A transcription result in series [2] (10 μM, vs vehicle control) is recorded as “did not significantly enhance”. The IL-22 transcription entry in series [3] (10 μM, vs vehicle control) is “did not significantly enhance”. Besides, the “Reversal of the SR2211-mediated inhibition of RORγ transactivation” value on RORγ [4] is listed as “restore the suppressed RORγ activity in a concentration-dependent manner”. Also, in the series with estrogenic activity (setting [8]), the estrogenic activity result is on record as “Estrogenic activity”.
With `O=C(OCc1ccccc1)c1ccc(O)cc1` [Benzylparaben, benzylparaben], at RORγ [1], the activation at 1 µM came out at 13 ± 4%, the activation at 2.5 µM is 45 ± 2% and the fold induction at 10 µM is greater than 1.5. The IL-17A transcription result in series [2] (10 μM, vs vehicle control) is recorded as “a trend was detected”. Besides, in series [3] (10 μM, vs vehicle control), the IL-22 transcription entry is given as “tended to increase”. At RORγ [4], the “Reversal of the SR2211-mediated inhibition of RORγ transactivation” value is “significant increase”.
Take `O=C(OCc1ccccc1)c1ccccc1O` [Benzylsalicylate]: on RORγ [1], the activation at 1 µM was 18 ± 3% and the “RORγ agonistic activity (in words)” value was “significant agonistic activity”. In series [2] (10 μM, vs vehicle control), the IL-17A transcription entry is on record as “did not significantly enhance”. For the same molecule, the IL-22 transcription entry in series [3] (10 μM, vs vehicle control) is listed as “did not significantly enhance”. Also, the “Reversal of the SR2211-mediated inhibition of RORγ transactivation” value on RORγ [4] was “restore the suppressed RORγ activity in a concentration-dependent manner”. Besides, the estrogenic activity result with estrogenic activity (setting [8]) is “Estrogenic activity”.
Take `CCCCOC(=O)c1ccc(O)cc1` [Butylparaben, butylparaben]: on RORγ [1], the activation at 1 µM turned out to be 5 ± 4% and the fold induction at 10 µM is greater than 1.5.
On to `CCc1ccc(N(CC(C)C)S(=O)(=O)c2ccc(OCC3CCOCC3)c(CO)c2)cc1` [GSK2981278, reference compound], for which the IL-17A transcription result in series [2] (1 μM) is listed as “efficient modulation”. In addition, the IL-22 transcription entry in series [3] (1 μM) is on record as “efficient modulation”.
Regarding `CCCCCCCOC(=O)c1ccc(O)cc1` [Heptylparaben, heptylparaben], on RORγ [1], the activation at 1 µM amounted to 5 ± 5% and the fold induction at 10 µM is greater than 1.5.
As for `CCCCCCOC(=O)c1ccc(O)cc1` [Hexylparaben, hexylparaben], at RORγ [1], the activation at 2.5 µM is 83 ± 8% and the fold induction at 10 µM was greater than 1.5. Further, the IL-17A transcription entry in series [2] (10 μM, vs vehicle control) is reported as “elevated expression”. Moreover, the IL-22 transcription entry in series [3] (10 μM, vs vehicle control) is listed as “significantly increased transcription”. Besides, the “Reversal of the SR2211-mediated inhibition of RORγ transactivation” value on RORγ [4] was “significant increase”. For the same molecule, the solubility result in series [5] was “reduced solubility”.
As to `O=C(Oc1ccccc1)c1ccc(O)cc1` [Phenylparaben, phenylparaben], at RORγ [1], the activation at 1 µM amounted to 5 ± 2% and the fold induction at 10 µM is greater than 1.5.
`O=C(Nc1ccc(C(O)(C(F)(F)F)C(F)(F)F)cc1)c1ccccc1Cl` [SR0987, reference compound]: the IL-17A transcription entry in series [2] (10 μM, vs vehicle control) is on record as “efficient modulation”. Also, the IL-22 transcription entry in series [3] (10 μM, vs vehicle control) is “significantly increased transcription”.
With `COc1ccc(C(=O)CC(=O)c2ccc(C(C)(C)C)cc2)cc1` [avobenzone], the skin penetration entry in series [6] (ref Simeoni et al., 2004, Weigmann et al., 2001) is reported as “limited skin penetration”.
As to `O=C(c1ccccc1)c1ccc(O)cc1O` [benzophenone-1], the “RORγ agonistic effect (in words, discussion)” value at RORγ [1] (micromolar concentrations) is “only weak RORγ agonistic effect”.
Consider `O=C(c1ccc(O)cc1O)c1ccc(O)cc1O` [benzophenone-2], for which the “RORγ agonistic activity (in words)” value at RORγ [1] was “agonistic activity”.
Take `COc1ccc(C(=O)c2ccccc2)c(O)c1` [benzophenone-3]: the “RORγ agonistic activity (in words)” value on RORγ [1] is recorded as “agonistic activity”. Moreover, in series [7], the “concentration in breast milk” value was 779.9 ng/g milk, the concentration in serum is 304 ng/mL and the concentration in urine was 300 ng/mL. Further, the skin penetration entry in series [6] (human skin, ref Benson et al., 2005, Fernandez et al., 2002) was “penetrate the human skin efficiently”.
As to `O=c1c(-c2ccc(O)cc2)coc2cc(O)cc(O)c12` [genistein, reference compound], the IL-17A transcription entry in series [2] (10 μM, vs vehicle control) is on record as “efficient modulation”. Also, the IL-22 transcription result in series [3] (10 μM, vs vehicle control) is listed as “significantly increased transcription”.
